According to patent publication US20100016163A1, “Adjuvant and dispersant formulations for pesticidal applications” (priority 2007, published 2010):
Read-outs that look alike come from different tables or passages of the source.

Tests used:
all 8 species = assay: Field trial of phytotoxicity enhancement, isopropyl ammonium glyphosate formulations (Example 7), sum over species; format: in vivo; settings: foliar, isopropyl ammonium glyphosate 360 g a.e./l, 15% surfactant
Method: (§1) The C14 DMAPA MeCl Esterquat formulation was prepared as follows: About 32.3 grams of a solution of the isopropyl ammonium salt of glyphosate, which was about 46.5% by weight acid equivalent (a.e.) of glyphosate and about 6.2 grams of deionized water, were added in a 4-ounce jar. Then, about 7.5 grams of the C14 DMAPA MeCl Esterquat and about 4 grams of propylene glycol were slowly added to the jar with stirring.
(§2) Samples of the formulations as made above were applied to subject plants at two application rates, 90% and 45% of the label rate of RoundUp® Ultra, available from Monsanto Company, St. Louis, Mo. RoundUp® Ultra contains about 360 g a.e./l of isopropyl ammonium glyphosate salt and about 15% by weight of a blend of surfactants. The precise identity of the surfactants has not been disclosed.
Eight plant species were selected for the study. They include (1) Bamyardgrass, (2) Redroot pigweed, (3) Morning glory ivyleaf, (4) Sicklepod, (5) Panicum, (6) Crabgrass, (7) Velvetleaf, and (8) Sunflower. The tests were performed in a randomized complete block design with 5 replicates of each species of plant. Plants were grown in square plastic pots, 3.75 inches×3.75 inches and 3.125 inches deep. Prior to treatment, 5 replicate pots were indiscriminately selected for each treatment and plant species. […]

Barnyardgrass = assay: Field trial Example 7, % kill; format: in vivo; settings: isopropyl ammonium glyphosate 360 g a.e./l
Method: as §1, §2
(§3) Eight plant species were selected for the study. They include (1) Bamyardgrass, (2) Redroot pigweed, (3) Morning glory ivyleaf, (4) Sicklepod, (5) Panicum, (6) Crabgrass, (7) Velvetleaf, and (8) Sunflower. The tests were performed in a randomized complete block design with 5 replicates of each species of plant. Plants were grown in square plastic pots, 3.75 inches×3.75 inches and 3.125 inches deep. Prior to treatment, 5 replicate pots were indiscriminately selected for each treatment and plant species. Treatments were applied as foliar applications with a hand pump sprayer equipped with 1 nozzle calibrated to deliver 15 gallons per acre. All spraying tests included a set of 5 untreated control plants from each species.

Crabgrass = assay: Field trial Example 7, % kill; format: in vivo; settings: isopropyl ammonium glyphosate 360 g a.e./l
Method: as §1, §2, §3

Morning glory, ivyleaf = assay: Field trial Example 7, % kill; format: in vivo; settings: isopropyl ammonium glyphosate 360 g a.e./l
Method: as §1, §2, §3

Panicum, fall = assay: Field trial Example 7, % kill; format: in vivo; settings: isopropyl ammonium glyphosate 360 g a.e./l
Method: as §1, §2, §3

Redroot pigweed = assay: Field trial Example 7, % kill; format: in vivo; settings: isopropyl ammonium glyphosate 360 g a.e./l
Method: as §1, §2, §3

Sicklepod = assay: Field trial Example 7, % kill; format: in vivo; settings: isopropyl ammonium glyphosate 360 g a.e./l
Method: as §1, §2, §3

Sunflower = assay: Field trial Example 7, % kill; format: in vivo; settings: isopropyl ammonium glyphosate 360 g a.e./l
Method: as §1, §2, §3

Velvetleaf = assay: Field trial Example 7, % kill; format: in vivo; settings: isopropyl ammonium glyphosate 360 g a.e./l
Method: as §1, §2, §3

[1] = Surface tension, Gibbs isotherm (Kibron μTrough S); format: physicochemical; settings: FIG. 3
Excerpt: The surface tension of a solution can give important information about its behavior as a surfactant. Measuring the surface tension of a series of aqueous solutions of a molecule and plotting the measured surface tension results versus the logarithm of the concentrations of the series of aqueous solutions yields a plot known as a Gibbs isotherm. From the Gibbs isotherm, one can obtain the critical micelle concentration (CMC) of a surfactant as well as the surface tension at the CMC, two parameters that can indicate the behavior of a surfactant.
For each molecule studied, 14 solutions were prepared so that each solution was half the concentration of the previous solution. Another solution that consisted of only deionized water was used as a reference. Therefore, a total of 15 solutions were studied for each molecule.

[2] = acid form, 25° C., cited from earlier work

Q: For `CCCCCCCCCCCCCC(=O)NCCC[N+](C)(C)C.[Cl-]` [C14 DMAPA MeCl Esterquat], which “Sum of % kill of all 8 species at low (45%) application rate” value (all 8 species; 45% of RoundUp Ultra label rate) is on record?
A: 660%

Q: What about the “Sum of % kill of all 8 species at high (90%) application rate” value (all 8 species; 90% of RoundUp Ultra label rate) of the same molecule?
A: 708%

Q: And the “% kill” value (Barnyardgrass; high (90%) application rate)?
A: 100%

Q: And the “% kill” value (Barnyardgrass; low (45%) application rate)?
A: 99%

Q: What about the “% kill” value (Crabgrass; high (90%) application rate) of the same molecule?
A: 100%

Q: And the “% kill” value (Crabgrass; low (45%) application rate)?
A: 100%

Q: And the “% kill” value (Morning glory, ivyleaf; high (90%) application rate)?
A: 84%

Q: And the “% kill” value (Morning glory, ivyleaf; low (45%) application rate)?
A: 53%

Q: What about the “% kill” value (Panicum, fall; high (90%) application rate) of the same molecule?
A: 95%

Q: What about the “% kill” value (Panicum, fall; low (45%) application rate) of the same molecule?
A: 90%

Q: What about the “% kill” value (Redroot pigweed; high (90%) application rate) of the same molecule?
A: 100%

Q: And the “% kill” value (Redroot pigweed; low (45%) application rate)?
A: 100%

Q: What about the “% kill” value (Sicklepod; high (90%) application rate) of the same molecule?
A: 33%

Q: What about the “% kill” value (Sicklepod; low (45%) application rate) of the same molecule?
A: 22%

Q: What about the “% kill” value (Sunflower; high (90%) application rate) of the same molecule?
A: 100%

Q: And the “% kill” value (Sunflower; low (45%) application rate)?
A: 100%

Q: What about the “% kill” value (Velvetleaf; high (90%) application rate) of the same molecule?
A: 96%

Q: And the “% kill” value (Velvetleaf; low (45%) application rate)?
A: 96%

Q: What about the “surface activity, compared with C14 DMAPA MeCl Esterquat” value [1] of the same molecule?
A: higher surface activity

Q: With `O=C(O)CNCP(=O)(O)O` [Glyphosate, N-(phosphonomethyl)glycine] as the molecule, how does the solubility in water [2] read?
A: 1.16 % by weight

Q: And the solubility in water ([2]; listed as glyphosate)?
A: about 1.16 % by weight
